From patent US20250346643A1, “TROPOMYOSIN KINASE RECEPTOR (TRK) LIGANDS AS THERAPEUTICS TO SUPPORT LIVER REGENERATION” (Vanderbilt University, priority 2024, published 2025) come the findings set out here.

Assay [1] has as its system hepatocytic differentiated human ductal organoids. The assay can be described thus: EdU incorporation in hepatocytic differentiated human ductal organoids (HDO). In kind it is cell-based. The following applies: co-incubation with taletrectinib 10 nM (FIG. 19C-D). The method, then:
(§1) Human ductal organoids. The normal human liver tissue was obtained through the Cooperative Human Tissue Network (CHTN) at Vanderbilt University Medical Center. The liver was cut into very small pieces in liver digestion medium (Gibco, Waltham, MA; 17703-034). The cell suspension was filtered through a 100-μm cell strainer. The flow through was then centrifuged for 2 min at 100 g, 4° C., and the cell pellet resuspended in ice-cold DMEM (Gibco, Waltham, MA; 11885-084, supplemented by 5% FBS) and centrifuged for 2 min at 300 g. The cell pellet was gently resuspended in Matrigel® (Corning, Corning, NY; 356231) and a […] dome plated in a 24-well plate. The plate was incubated for 10-15 min at 37° C. After solidifying, complete HepatiCult™ Organoid Initiation Medium (OIM) (STEMCELL Technologies, Vancouver, Canada; 100-0384) was added. For passaging, the Matrigel dome was dissociated using TrypLE (Thermo Fisher Scientific, Waltham, MA; 12604013) and incubated at 37° C. for 5 mins. Organoids were washed by resuspending in advanced DMEM/F12 and consecutive resuspension of the organoid pellet. Organoids were resuspended at a 1:10 dilution in Matrigel® and cultured in complete HepatiCult™ Organoid Growth Medium (OGM) (STEMCELL Technologies, Vancouver, Canada; 100-0385) for organoid expansion. For hepatocytic differentiation of hepatic ductal organoids, culture medium was changed to complete HepatiCult™ Organoid Differentiation Medium (ODM) (STEMCELL Technologies, 100-0383) 4 days after passaging. Vehicle, NTF3, BDNF, HGF (20 ng/ml final concentration) or Taletrectinib (Fisher Scientific, Waltham, MA; 502030245, final concentration 10 nM) or torin2 (Fisher Scientific, Waltham, MA; s2817, final concentration 25 nM) were diluted in William's E (without L-glutamine) and added to organoids.
EdU incorporation and imaging in HDO and mpPHH. A chamber slide was pre-chilled on ice and coated with Matrigel®. Chamber slide was then incubated for 3 min at 37° C. to solidify and organoids plated in 0.02% Matrigel®/complete media into coated chamber slides. Organoids were grown in complete organoid growth media (OGM) for approximately 4 days followed by incubation in organoid differentiation media (ODM) for another 4 days. Organoids were changed to William's E medium 1 day prior to experiment. Vehicle or NTF3, BDNF, HGF (20 ng/ml final concentration each) or Taletrectinib (Fisher Scientific, Waltham, MA; 502030245, final concentration 10 nM) were diluted in William's E (without L-glutamine) and added to organoids. CLICK-iT™ EdU (EdU final concentration […] incubated together with the vehicle, NTF3, BDNF or HGF). After 6 hours, organoids were fixed with 4% paraformaldehyde and permeabilized with 0.5% Triton-X 100. Further processing was performed according to CLICK-ITT EdU manufacturer's instructions. mpPHHs were seeded on collagen coated chamber slides and grown in complete hepatocyte medium (Lonza, Basel, Switzerland). Prior to EdU incorporation assays, mpPHHs were cultured in William's E medium. Vehicle or NTF3, BDNF, HGF (20 ng/ml final concentration each) or Taletrectinib (Fisher Scientific, Waltham, MA; 502030245, final concentration 10 nM) were diluted in William's E (without L-glutamine) and added to mpPHHs. Organoids were imaged in PBS in chamber slides, mpHHs were mounted with fluoromount. Five to fifteen images of random high-power fields were obtained per experiment per treatment and EdU+/Hoechst 33342+ nuclei versus all Hoechst 33342+ nuclei quantified.

The test system of assay [2] is primary mouse hepatocytes. The assay can be described thus: Cell proliferation assay (CellTiter-Glo) in primary mouse hepatocytes. The assay is classed as cell-based. The protocol:
Primary hepatocyte isolation. Pdgfrb-GFP-negative or H-2Kd mice older than 4 months were anesthetized and cannulated via the portal vein. Livers were perfused with about 25 ml of pre-warmed Liver Perfusion Medium (Gibco, Waltham, MA; 17707-038) followed by about 50 ml Liver Digestion Medium (Gibco, Waltham, MA; 17703-034). Liver capsule was gently teased apart with tweezers and hepatocytes released. Cells were taken up in Hepatocyte Wash Buffer (Gibco, Waltham, MA; 17704-024) and filtered through 100 μm mesh. Cells were then centrifuged for 2 min at 100 g, 4° C. and cell pellet resuspended in ice cold 10 ml DMEM (Gibco, Waltham, MA; 11885-084)/5% FBS. 10 ml of ice cold 100% Percoll®/PBS (GE HealthCare, Chicago, IL; GE17-0891-01) was added for gradient purification and cells centrifuged for 10 min at 200 g, 4° C. Cell pellet was resuspended with 20 ml DMEM/5% FBS and centrifuged for 2 min at 100 g, 4° C. 1-2×10^3 hepatocytes were plated on collagen-coated 96-well plates in DMEM/5% FBS/Pen/Strep. Rat tail collagen I (Gibco, Waltham, MA; A1048301) was used for coating. Cell culture media was changed 3 hours after plating with either serum-free William's E media (Gibco, Waltham, MA) containing Pen/Strep (Gibco, Waltham, MA) or DMEM/5% FBS/Pen/Strep. NTF3 (STEMCELL technologies, Vancouver, Canada) was added 1 day after plating at a final concentration of 20 ng/ml and primary hepatocytes cultured for 3 days with NTF3 until analysis.
Cell proliferation assays. Primary mouse hepatocytes, HepG2 or AML 12 cells were grown in opaque-walled 96-well plates. NTF3 (final concentration 20 ng/ml) (STEMCELL Technologies, Vancouver, Canada; cat. 78074) and/or Loxo-195 (final concentration 5 nM) (Selleckchem, Houston, TX; S8636) were added into complete growth media without L-glutamine. Primary mouse hepatocytes were also grown in serum-free William's E media without supplements. Cells were analyzed by CellTiter-Glo® (Promega G7570, Madison, WI) which detects the number of viable cells on day 0 to day 5 by on detection systems GloMax® (Promega) or Bioteck Synergy H1 (Agilent, Santa Clara, CA). Mouse recombinant HGF (Abcam, Cambridge, UK; ab281797) was added to cell culture media at a final concentration 5 ng/ml. TRKB inhibitor ANA-12 (Selleckchem, Houston, TX; S7745) was diluted in DMSO (10 mM stock solution) and added to cell culture media at a final concentration of 10 nM.
Primary mouse hepatocyte isolation. Mice were anesthetized and cannulated via the portal vein. Livers were perfused with ˜25 ml of prewarmed liver perfusion medium (Gibco, Waltham, MA; 17707-038) followed by ˜50 ml of liver digestion medium (Gibco, Waltham, MA; 17703-034). The liver capsule was gently teased apart with tweezers, and hepatocytes were released. Cells were taken up in Hepatocyte Wash Buffer (Gibco, Waltham, MA; 17704-024) and filtered through a 100-μm mesh. Cells were then centrifuged for 2 min at 100 g, 4° C., and the cell pellet was resuspended in 10 ml of ice-cold DMEM (Gibco, Waltham, MA; 11885-084)/5% FBS. […] of ice-cold 100% Percoll®/PBS (GE HealthCare, Chicago, IL; GE17-0891-01) were added for gradient purification, and cells were centrifuged for 10 min at 200 g, 4° C. The cell pellet was resuspended with 20 ml of DMEM/5% FBS and centrifuged for 2 min at 100 g, 4° C. A total of 1×10^3 to 2×10^3 hepatocytes were plated on collagen-coated 96-well plates in DMEM/5% FBS/Pen/Strep. Rat tail collagen I (Gibco, Waltham, MA; A1048301) was used for coating. Cell culture media were changed 3 hours after plating with either serum-free William's E media (Gibco, Waltham, MA) containing Pen/Strep (Gibco, Waltham, MA) or DMEM/5% FBS/Pen/Strep. […]
On the technique in general: In ATP-based viability assays light output follows the ATP content of the culture.

The next assay relates to mTORC1. The assay can be described thus: Immunoblotting of HDOs for P-S6RP and P-P70S6K (mTORC1 activation). The assay is classed as cell-based, human. The method, then: as §1
Immunoblotting. HDOs and mpPHH were homogenized in RIPA buffer containing proteinase inhibitors (Roche, Basel, Switzerland; cOmplete™ Mini protease inhibitor, 2 tab/10 ml buffer) and 1×HALT phosphatase inhibitors (Thermo Fisher Scientific, Waltham, MA; catalog no. 78428). Lysates were sonicated and then centrifuged for 10 min at 18,800 g. Protein concentration of supernatants was determined by Direct Detect Spectrophotometer (MilliporeSigma, Burlington, MA). HDOs were treated with growth factors as described above. Lyophilized NTF3 was solubilized with sterile-filtered PBS supplemented with 0.1% BSA, aliquoted, and stored at −80° C. until use. […] HDOs and mpPHH were collected on ice in PBS and centrifuged for 10 s, and the cell pellet was homogenized in RIPA buffer containing inhibitors (Roche, Basel, Switzerland; cOmplete™ Mini protease inhibitor, 1×HALT phosphatase inhibitors, Thermo Fisher Scientific, Waltham, MA; catalog no. 78428). Cell lysates were sonicated and centrifuged for 10 min at 18,800 g. The protein concentration of supernatants was determined by a Direct Detect® spectrophotometer (MilliporeSigma, Burlington, MA). For immunoblot analysis, 10 to 50 μg of protein diluted in […] sample buffer (Invitrogen, Waltham, MA) were analyzed per SDS-polyacrylamide gel electrophoresis (NuPAGE™, Invitrogen, Waltham, MA) using Mops buffer or MES buffer (Invitrogen, Waltham, MA). […] Semi-quantitative band densitometry was performed using ImageJ software (version 1.53).
Background: A western blot detects proteins with antibodies after separation by electrophoresis.

`C[C@@H](N)COc1ccc(-c2cnc3ccc(N[C@H](C)c4cccc(F)c4)nn23)cc1` [taletrectinib, reference compound]: in assay [1], the “effect on NTF3-induced increase of EdU+ cells” value is given as “decreased”. Take `CC(=O)NCCc1c[nH]c2ccc(O)cc12` [NAS, N-Acetyl-5-hydroxytryptamine, reference compound]: the “cell proliferation, comparison of NTF3, HGF, BDNF and NAS” value in assay [2] (BDNF and HGF 20 ng/ml, NAS 500 nM (FIG. 16E)) was “induce proliferation to a similar extent”. As for insulin: a known activator of mTORC1, in the assay on mTORC1 (HDO, serum free and glutamine free William's E medium (FIG. 20A-C)), the “phosphorylation of P-p70S6 kinase and P-S6 ribosomal protein (S6RP)” value was “significantly increased phosphorylation”. `O=C(Nc1ccccc1C(=O)NC1CCCCNC1=O)c1cc2ccccc2s1` (stereo not drawn) [ANA-12, reference compound]: the “inhibition of NTF3-induced cell proliferation” value in assay [2] (ANA-12 10 nM, NTF3 20 ng/ml, serum-free medium (FIG. 12D)) is “significantly inhibited”. The “effect on BDNF-induced proliferation” value in assay [2] (co-incubation with ANA-12 10 nM (FIG. 16C)) is “inhibited”. For `NC(=O)CC[C@H](N)C(=O)O` [glutamine], the “phosphorylated S6rp (Ser240/244)” value in the assay on mTORC1 (HDOs cultured in glutamine free media, coincubation (FIG. 18G), Torin2 25 nM) is reported as “decreased phosphorylated S6rp”.
